Data taken from patent US11531036B2, “Method and apparatus for determining the efficacy of statins for treating inflammatory diseases in individual patients” (Queen Mary University of London, priority 2017, dated 2022).

Key:
[1] = test system: 13-series resolvins (RvT); test: Lipid mediator profiling (LC-MS/MS) of paws in K/BxN serum inflammatory arthritis; type: in vivo, mice; conditions: for increase in overall RvT amounts in joints/paws compared with vehicle: paws collected day 8, 24 h after last dose
Description: (§1) JCI Insight. 2016; 1(5):e85922.
(§2) Blood and paws were collected either on day 8 after arthritis onset or 2 h after statin injection on day 7.
Ice-cold methanol containing 500 pg of each deuterated (d) internal standard: d8-SSHydroxyeicosatetraenoic, d4-Leukotriene (LT) B4, d5-Lipoxin (LX) A4, d-Prostaglandin (PG) E2 and d5-Resolvin D2, was added to samples. […] J Clin Invest. 2017; 127(1):169-182.
Using multiple reaction monitoring the concentrations of mediators identified in these paws were quantified.

Male C57BL/6 mice = test: K/BxN serum inflammatory arthritis: 26-point clinical score, paw swelling, knee H&E histology; type: in vivo; conditions: 0.2 mg/Kg days 3, 5, 7
Description: Male C57BL/6 mice (11 weeks old) were procured from Charles River (Kent, UK). All animals were provided with standard laboratory diet and water ad libitum and kept on a 12 h light/dark cycle.
as §1, §2
Arthritis was initiated and mice were treated and disease progression monitored as described above.

[2] = test system: circulating monocytes, neutrophils and platelets; test: Flow cytometry of circulating leukocytes and platelets in inflammatory arthritis; type: in vivo, mice; conditions: 0.2 mg/Kg days 3, 5, 7; blood day 8, vs vehicle
[3] = test system: joint non-classical monocytes, neutrophils and monocyte-derived macrophages; test: Flow cytometry of leukocytes isolated from inflamed paws/joints; type: in vivo, mice; conditions: paws day 8, vs vehicle
Description: Front paws were collected on day 8 and digested to liberate infiltrating leukocytes. Leukocyte subsets were defined using antibodies against specific markers and flow cytometry. Trafficking and activation of (A) non-classical monocytes, (B) neutrophils, (C) monocyte-derived macrophages were assessed.
as §1
Paws were harvested and leukocytes isolated as described in Dalli J et al. 2015 (ibid). Briefly, paws were incubated in RPMI-1640 (containing […] collagenase D and 40 µg/mL DNAse I) at 37° C. for 30 minutes with vigorous agitation. Isolated cells were passed through a […] strainer and suspended in RPMI-1640 containing […] and 10% FBS, then centrifugated at 400×g, 10 minutes. Isolated cells were suspended in DPBS−/− containing 0.02% BSA and 1% Fc-blocking IgG (v/v), and incubated with 0.1% Live/Dead stain for 20 minutes on ice. Cells were washed using DPBS−/− and incubated with fluorescent-labelled antibodies for 45 minutes on ice. These were then washed and fixed using 1% paraformaldehyde. Absolute counting beads were used for leukocyte enumeration. Staining was then evaluated using a flow cytometry analyser and analysed using suitable software.
First, the trafficking of non-classical monocytes to the inflamed joints was assessed, given their role in disease onset and propagation of K/B×N serum initiated inflammatory arthritis.

[4] = test system: 13-series resolvins (RvT) and eicosanoids; conditions: blood 2 h after last statin dose on day 7
E. coli infections = conditions: atorvastatin and RvTs, additive actions; cited from earlier work
[5] = clearance from the circulation; cited from earlier work
[6] = celecoxib 10 mg/Kg 1 h prior to pravastatin or atorvastatin, paws day 8

CC(C)c1c(C(=O)Nc2ccccc2)c(-c2ccccc2)c(-c2ccc(F)cc2)n1CC[C@@H](O)C[C@@H](O)CC(=O)O [atorvastatin]
increase in overall RvT amounts in joints/paws compared with vehicle ([1]; 0.2 mg/Kg i.v. days 3, 5, 7): 43% | individual RvT increased in paws compared with vehicle ([1]; 0.2 mg/Kg i.v. days 3, 5, 7, paws day 8): increased RvT1, RvT2, RvT3 and RvT4 | joint swelling (midfoot pad thickness) (Male C57BL/6 mice): reduced joint swelling | H&E knee joint sections: leukocyte infiltration, pannus formation and joint damage (Male C57BL/6 mice; day 8, vs vehicle): reduced leukocyte infiltration, pannus formation and joint damage | maximum disease score (26-point clinical score) (Male C57BL/6 mice; maximum at day 5): 9.1±1.2 | neutrophil CD11b expression (circulating) [2]: significantly reducing | reduction in CD11b expression on circulating classical monocytes [2]: regulated | reduction in CD11b expression on circulating non-classical monocytes [2]: regulated | reduction in platelet CD62P expression [2]: ~60% | reduction in platelet-monocyte aggregates (both monocyte subsets) [2]: regulated | reduction in platelet-neutrophil aggregates [2]: significantly reducing | reduction in total numbers of non-classical monocytes recruited to the joints ([3]; 0.2 mg/Kg days 3, 5, 7): > 60% | CD11b expression on joint non-classical monocytes ([3]; 0.2 mg/Kg): reduction | MHCII expression on joint non-classical monocytes ([3]; 0.2 mg/Kg): significant reduction | joint neutrophil CD11b and MHCII expression ([3]; 0.2 mg/Kg): did not reach statistical significance | neutrophil trafficking to the joint ([3]; 0.2 mg/Kg): decreased | number of monocyte-derived macrophages in joints and their CD11b and MHCII expression ([3]; 0.2 mg/Kg): significant reduction | decrease in circulating PGD2 [4]: decreased | decrease in circulating PGE2 [4]: decreased | increased survival (E. coli infections): > 60%

Cc1ccc(-c2cc(C(F)(F)F)nn2-c2ccc(S(N)(=O)=O)cc2)cc1 [celecoxib]
reduction in joint RvT1 concentration compared to statin alone [1, 6]: > 75% | reduction in joint RvT compared to statin alone [1, 6]: ~60%

CC[C@H](C)C(=O)O[C@H]1C[C@H](O)C=C2C=C[C@H](C)[C@H](CC[C@@H](O)C[C@@H](O)CC(=O)O)[C@H]21 [pravastatin]
increase in overall RvT amounts in joints/paws compared with vehicle ([1]; 0.2 mg/Kg i.v. days 3, 5, 7): ~20% | reduction in disease activity compared with vehicle (Male C57BL/6 mice; day 5 through day 7): ~23% | reduction in CD11b expression on circulating classical monocytes [2]: ~40% | reduction in CD11b expression on circulating non-classical monocytes [2]: ~10% | reduction in platelet CD62P expression [2]: ~70% | reduction in platelet-monocyte aggregates (both monocyte subsets) [2]: ~35% | reduction in platelet-neutrophil aggregates [2]: ~25% | decrease in circulating PGD2 [4]: ~46% | decrease in circulating PGE2 [4]: ~29% | increase in plasma/peripheral blood RvT compared with vehicle [4]: > 100% | half-life [5]: ~3 h
